Each molecule was assayed on human embryonic stem cell derived neural stem cells (NSCs) (assay: Neural stem cell proliferation assay (neurogenesis assay)). Settings: Homo sapiens, Neural stem cell, 96 h; Table 2, known compounds; concentration at which 150% activity of control (100%) is reached; ATP levels (CellTiterGlo) after 4 days incubation.
Assay type: cell-based
In short: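 NSCs derived from human ES cells by dual SMAD inhibition, seeded on polyornithin/laminin, dosed 4 h later (11 points, 8 μM to 8 nM). After 4 days at 37° C, ATP luminescence read; response = compound/medium control ×100, EC150 = concentration giving 150% of control.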

| SMILES | EC (150% of control) |
| --- | --- |
| O=C(NCc1ccncc1)c1ccc2cncc(-c3ccsc3)c2n1 [Example 198, 8-Thiophen-3-yl-[1,6]naphthyridine-2-carboxylic acid (pyridin-4-ylmethyl)-amide] | 0.12 µM |
| O=C(NCc1ccccc1)c1ccc2cncc(-c3ccsc3)c2n1 [Example 199, 8-Thiophen-3-yl-[1,6]naphthyridine-2-carboxylic acid benzylamide] | 0.1 µM |
| O=C(c1ccc2cncc(-c3ccsc3)c2n1)N1CCN(c2ccccn2)CC1 [Example 200, (4-Pyridin-2-yl-piperazin-1-yl)-(8-thiophen-3-yl-[1,6]naphthyridin-2-yl)-methanone] | 0.8 µM |
| O=C(NCc1ccc(Cl)cc1)c1ccc2cncc(-c3ccsc3)c2n1 [Example 201, 8-Thiophen-3-yl-[1,6]naphthyridine-2-carboxylic acid 4-chloro-benzylamide] | 0.8 µM |
| COc1ccccc1CNC(=O)c1ccc2cncc(-c3ccsc3)c2n1 [Example 202, 8-Thiophen-3-yl-[1,6]naphthyridine-2-carboxylic acid 2-methoxy-benzylamide] | 0.15 µM |
| O=C(NCc1ccc(C(F)(F)F)nc1)c1ccc2cncc(-c3ccsc3)c2n1 [Example 203, 8-Thiophen-3-yl-[1,6]naphthyridine-2-carboxylic acid (6-trifluoromethyl-pyridin-3-ylmethyl)-amide] | 1.5 µM |
| COCCNC(=O)c1ccc2cncc(-c3ccccc3)c2n1 [Example 204, 8-Phenyl-[1,6]naphthyridine-2-carboxylic acid (2-methoxy-ethyl)-amide] | 0.2 µM |
| O=C(c1ccc2cncc(-c3cc4ccccc4o3)c2n1)N1CCCCC1 [Example 205, (8-Benzofuran-2-yl-[1,6]naphthyridin-2-yl)-piperidin-1-yl-methanone] | 3.5 µM |
| NC(=O)c1ccc2cncc(Br)c2n1 [Example 206, 8-Bromo-1,6-naphthyridine-2-carboxamide] | 0.8 µM |

From patent US9657014B2, “Substituted 1,6-naphthyridines” (Hoffmann-La Roche Inc., priority 2012, dated 2017)
